Measured values reported in patent publication US20110015264A1 (priority 2006, published 2011).
Like-named read-outs stand apart in the source and are kept apart here.

What was measured:
[1] = target: neuraminidase enzyme N9 from H1N9 virus (Influenza A virus, UniProt P03472); test: biochemical; parameters: species or system A/H1N9 (NWS/G70) avian virus; settings: for IC90: read-out: IC90 against N9 enzyme
[2] = target: N9 neuraminidase (Influenza A virus, UniProt P03472); assay type: binding, A/H1N9 (NWS/G70) avian virus
[3] = tested on: A/Victoria/3/75 (H3N2) influenza virus; parameters: species or system BALB/c mice; settings: mouse, in vivo
[4] = tested on: A/NWS/33 (H1N1) influenza virus; settings: mouse, in vivo
[5] = tested on: influenza virus; parameters: species or system BALB/c mice; settings: mouse, in vivo
[6] = target: H1N1 neuraminidase (UniProt P03470); settings: read-out: IC50 against H1N1; Bantia et al. 2001; cited from earlier work
[7] = tested on: influenza; settings: human, in vivo, po; cited from earlier work

Sequence of neuraminidase enzyme N9 from H1N9 virus (P03472 whole entry, looked up): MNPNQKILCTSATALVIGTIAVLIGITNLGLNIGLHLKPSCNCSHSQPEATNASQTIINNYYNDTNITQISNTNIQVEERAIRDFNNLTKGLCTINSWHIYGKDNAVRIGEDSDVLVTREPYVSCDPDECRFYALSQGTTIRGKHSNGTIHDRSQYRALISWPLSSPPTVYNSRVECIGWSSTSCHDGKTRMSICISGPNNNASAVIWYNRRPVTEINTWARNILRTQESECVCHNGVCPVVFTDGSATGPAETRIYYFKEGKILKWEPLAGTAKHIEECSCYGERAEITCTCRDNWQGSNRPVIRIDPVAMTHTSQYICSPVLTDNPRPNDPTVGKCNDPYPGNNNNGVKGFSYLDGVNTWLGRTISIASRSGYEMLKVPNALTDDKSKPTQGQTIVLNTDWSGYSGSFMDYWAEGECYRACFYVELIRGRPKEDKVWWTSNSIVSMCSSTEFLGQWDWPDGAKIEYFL
Sequence of N9 neuraminidase (P03472 whole entry, looked up): as above
Sequence of H1N1 neuraminidase (P03470 whole entry, looked up): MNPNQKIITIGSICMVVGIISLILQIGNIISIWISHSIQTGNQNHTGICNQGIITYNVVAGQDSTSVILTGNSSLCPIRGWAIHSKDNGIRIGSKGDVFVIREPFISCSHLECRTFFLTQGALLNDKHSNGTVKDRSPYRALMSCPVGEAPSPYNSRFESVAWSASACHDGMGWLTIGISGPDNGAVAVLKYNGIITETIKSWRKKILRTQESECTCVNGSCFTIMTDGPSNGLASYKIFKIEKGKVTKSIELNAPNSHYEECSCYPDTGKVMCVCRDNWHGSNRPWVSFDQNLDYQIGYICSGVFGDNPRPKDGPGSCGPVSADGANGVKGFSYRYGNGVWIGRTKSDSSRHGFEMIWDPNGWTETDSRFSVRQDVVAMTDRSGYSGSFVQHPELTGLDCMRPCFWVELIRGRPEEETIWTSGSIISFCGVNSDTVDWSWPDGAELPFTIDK

## CC(=O)N[C@H]1[C@H]([C@H](O)[C@H](O)CO)OC(C(=O)O)=C[C@@H]1N=C(N)N [zanamivir, reference compound]
[1]
  IC90: 10 nM
[2]
  t1/2 of dissociation from N9 neuraminidase: 1.25 h

## CCOC(=O)C1=C[C@@H](OC(CC)CC)[C@H](NC(C)=O)[C@@H](N)C1 [oseltamivir, reference compound]
[3]; po
  mean weight loss by day 8: about 5.1 g
  mean weight loss by day 8, % of weight: 28%
  survived (protection against lethality): 9/10
[4]
  survival rate: 10%
[4]; 10 mg/kg
  mice survived: 3 out of 10
  protection against lethality: 30%
  weight loss: about 4 g
  weight loss and mortality: no efficacy
  weight loss, % of initial weight: 25 % of initial weight
[4]; po, 2 mg/kg/day
  greatest mean weight loss at day 8: 1.34 g
[4]; po, 10 mg/kg/day
  greatest mean weight loss at day 8: 0 g

## CCC(CC)C(NC(C)=O)[C@@H]1[C@H](O)[C@@H](C(=O)O)C[C@H]1NC(=N)N (stereo partly drawn) [peramivir, (1S,2S,3R,4R)-3-(1-Acetamido-2-ethylbutyl)-4-guanidino-2-hydroxycyclopentane-carboxylic acid]
[1]
  IC50: 1.3 ± 0.4 nM
  IC90: 5 nM
[2]
  t1/2 of dissociation from N9 neuraminidase: > 24 h
[3]
  mean weight loss by day 8: 4.5 g
  mean weight loss by day 8, % of weight: 25%
  survived (protection against lethality): 9/10
[5]
  effectiveness of delayed treatment: highly effective
  protection against lethality: complete protection against lethality
  weight loss by day 5: no significant weight loss
[5]; po
  weight loss by day 5: no significant weight loss
[4]
  prevention of weight loss in infected mice: effective in preventing weight loss
  survival: 40%
  survival rate: 50%
[4]; 1 mg/kg
  effectiveness in terms of survival: not effective
  mean days to death: significant increase
[4]; 10 mg/kg
  weight loss and mortality: significantly reduced
  weight loss by day 5: no weight loss
  weight loss, % of initial weight: about 1.7 % of initial weight
[4]; 20 mg/kg
  signs of drug-related toxicity: No signs of drug-related toxicity
[4]; po, 1 mg/kg/day
  survival: 60%
[4]; po, 10 mg/kg
  weight loss by day 5: 0.22 g
[4]; po, 10 mg/kg/day
  protection against lethality: Complete protection against lethality
[6]
  IC50: 0.11 nM
[7]
  inhibitory effect on influenza in humans: undesirably low inhibitory effect
